A word on the IC50: it is the concentration needed to halve the response being measured. For orientation: EC50 means the concentration at which the effect is half-maximal.

This note sets out measurements from publication PMC3509527, “Leucettamols, Bifunctionalized Marine Sphingoids, Act as Modulators of TRPA1 and TRPM8 Channels” (Marine Drugs, 2012).

Type in all cases: cell-based
In one assay the target is T1, rat TRPM8 channel (Rattus norvegicus, UniProt Q8R455).
T1 construct: expressed in transfected cells; host or cells: HEK-293
T1 sequence (Q8R455 whole entry): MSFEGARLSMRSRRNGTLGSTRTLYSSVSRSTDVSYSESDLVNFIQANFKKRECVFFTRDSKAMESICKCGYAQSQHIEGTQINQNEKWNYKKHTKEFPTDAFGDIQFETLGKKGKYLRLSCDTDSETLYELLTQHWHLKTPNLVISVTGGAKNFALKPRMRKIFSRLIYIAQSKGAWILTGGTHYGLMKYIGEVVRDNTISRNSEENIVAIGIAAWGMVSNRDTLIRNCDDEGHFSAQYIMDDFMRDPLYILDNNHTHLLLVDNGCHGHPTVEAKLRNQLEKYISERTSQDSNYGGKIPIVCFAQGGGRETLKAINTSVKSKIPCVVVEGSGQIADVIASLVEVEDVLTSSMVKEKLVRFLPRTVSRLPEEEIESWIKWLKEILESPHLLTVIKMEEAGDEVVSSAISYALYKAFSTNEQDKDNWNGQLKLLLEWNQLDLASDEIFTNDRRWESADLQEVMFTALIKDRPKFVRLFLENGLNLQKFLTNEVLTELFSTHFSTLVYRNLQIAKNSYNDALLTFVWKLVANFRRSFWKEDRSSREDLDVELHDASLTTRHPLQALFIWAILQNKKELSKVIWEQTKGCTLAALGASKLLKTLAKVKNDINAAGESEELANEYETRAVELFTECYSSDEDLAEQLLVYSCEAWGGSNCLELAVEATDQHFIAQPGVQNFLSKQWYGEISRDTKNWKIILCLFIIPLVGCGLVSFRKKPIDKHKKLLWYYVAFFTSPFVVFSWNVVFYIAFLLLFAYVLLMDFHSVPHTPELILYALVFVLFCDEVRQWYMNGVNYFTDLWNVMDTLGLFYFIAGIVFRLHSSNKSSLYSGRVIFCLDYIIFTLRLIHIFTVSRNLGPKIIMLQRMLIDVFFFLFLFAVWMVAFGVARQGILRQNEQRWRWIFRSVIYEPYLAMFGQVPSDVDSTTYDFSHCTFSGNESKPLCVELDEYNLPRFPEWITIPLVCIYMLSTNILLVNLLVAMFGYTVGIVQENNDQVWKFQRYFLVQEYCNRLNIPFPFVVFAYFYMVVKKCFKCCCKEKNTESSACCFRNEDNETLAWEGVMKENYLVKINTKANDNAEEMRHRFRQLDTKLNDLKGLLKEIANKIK
Description: Inhibition of icilin-induced [Ca2+]i elevation in TRPM8-HEK-293 cells. To be noted: 5-min preincubation, against icilin 0.25 μM. The protocol:
(§1) Assays of TRP-mediated elevation of intracellular [Ca^2+] were performed as previously described. In the current study we have used wild-type HEK293 cells, cells stably expressing rat TRPA1 or human TRPV1 or rat TRPM8. HEK-293 cells stably over-expressing recombinant rat TRPA1, rat TRPM8 or human TRPV1 were selected by G-418 (Geneticin; 600 μg·mL^−1), grown on 100 mm diameter Petri dishes as monolayers in minimum essential medium supplemented with non-essential amino acids, 10% fetal bovine serum and 2 mM glutamine, and maintained under 5% CO2 at 37 °C. Stable expression of each channel was confirmed by real time quantitative PCR (not shown). On the day of the experiment, the cells were loaded for 1 h at 25 °C with the cytoplasmic calcium indicator Fluo-4AM (Invitrogen Carlsbad, CA, USA) 4 μM in DMSO containing 0.02% Pluronic F-127 (Invitrogen, Carlsbad, CA, USA). After loading, cells were washed twice in Tyrode’s buffer (145 mM NaCl, 2.5 mM KCl, 1.5 mM CaCl2, 1.2 mM MgCl2, 10 mM D-glucose and 10 mM HEPES, pH 7.4), re-suspended in the same buffer, and transferred to the quartz cuvette of the spectrofluorimeter (λex = 488 nm; λem = 516 nm) (Perkin-Elmer LS50B equipped with PTP-1 Fluorescence Peltier System; Perkin-Elmer Life and Analytical Sciences, Waltham, MA, USA) under continuous stirring. About 100,000 cells were used for each data point. Experiments were carried out at 22 °C by measuring cell fluorescence before and after the addition of various concentrations of test compounds. The values of the effect on [Ca^2+]i in wild-type (i.e., not transfected with any construct) HEK-293 cells were taken as baselines and subtracted from the values obtained from transfected cells. The potency of test compounds (EC50 values) was determined as the concentration of test substances required to produce half-maximal increases in [Ca^2+]i. The efficacy of the agonists on TRPA1 is expressed as a percentage of the effect obtained with 100 μM allylisothiocyanate (AITC). Antagonist/desensitizing behaviour was evaluated against icilin (0.25 μM) for TRPM8 and AITC (100 μM) for TRPA1 by adding the compounds in the quartz cuvette 5 min before stimulation of cells with agonists. Data are expressed as the concentration exerting a half-maximal inhibition of agonist effect (IC50). All determinations were at least performed in triplicate. Dose-response curves were fitted by a sigmoidal regression with variable slope. Curve fitting and parameter estimation were performed with GraphPad Prism (GraphPad Software Inc., San Diego, CA, USA).

Assay [1] concerns the target T2, rat TRPA1 channel (Rattus norvegicus, UniProt Q6RI86).
T2 construct: expressed in transfected cells; host or cells: HEK-293
The assay is described as follows: TRPA1 desensitization/inhibition of AITC-induced [Ca2+]i elevation in TRPA1-HEK-293 cells. The conditions noted are these: 5-min preincubation, against AITC 100 μM. On the procedure:
as §1, with “Stable expression of each channel was confirmed by real time quantitative PCR (not shown).” left out

The target in assay [2] is T2, rat TRPA1 channel. The assay is described as follows: TRPA1 activation, fluorometric intracellular [Ca2+]i in TRPA1-HEK293 cells. The conditions noted are these: for Efficacy TRPA1 (% AITC 100 μM) / EC50: rat TRPA1-HEK293 cells; for EC50: read-out: Potency EC50 TRPA1. On the procedure: as §1, with “Stable expression of each channel was confirmed by real time quantitative PCR (not shown).” left out

Assay [3] concerns the target T3, human recombinant TRPV1 channel (Homo sapiens, UniProt Q8NER1).
T3 construct: expressed in transfected cells; host or cells: HEK-293
Description: Elevation of intracellular Ca2+ in HEK-293 cells stably transfected with TRPV1. To be noted: at 10 μM. The protocol: Assays of TRP-mediated elevation of intracellular [Ca^2+] were performed as previously described. In the current study we have used wild-type HEK293 cells, cells stably expressing rat TRPA1 or human TRPV1 or rat TRPM8. HEK-293 cells stably over-expressing recombinant rat TRPA1, rat TRPM8 or human TRPV1 were selected by G-418 (Geneticin; 600 μg·mL^−1), grown on 100 mm diameter Petri dishes as monolayers in minimum essential medium supplemented with non-essential amino acids, 10% fetal bovine serum and 2 mM glutamine, and maintained under 5% CO2 at 37 °C. […] After loading, cells were washed twice in Tyrode’s buffer (145 mM NaCl, 2.5 mM KCl, 1.5 mM CaCl2, 1.2 mM MgCl2, 10 mM D-glucose and 10 mM HEPES, pH 7.4), re-suspended in the same buffer, and transferred to the quartz cuvette of the spectrofluorimeter (λex = 488 nm; λem = 516 nm) (Perkin-Elmer LS50B equipped with PTP-1 Fluorescence Peltier System; Perkin-Elmer Life and Analytical Sciences, Waltham, MA, USA) under continuous stirring. […] Experiments were carried out at 22 °C by measuring cell fluorescence before and after the addition of various concentrations of test compounds. […] The potency of test compounds (EC50 values) was determined as the concentration of test substances required to produce half-maximal increases in [Ca^2+]i. […] Data are expressed as the concentration exerting a half-maximal inhibition of agonist effect (IC50). […]

T2 sequence (Q6RI86 whole entry): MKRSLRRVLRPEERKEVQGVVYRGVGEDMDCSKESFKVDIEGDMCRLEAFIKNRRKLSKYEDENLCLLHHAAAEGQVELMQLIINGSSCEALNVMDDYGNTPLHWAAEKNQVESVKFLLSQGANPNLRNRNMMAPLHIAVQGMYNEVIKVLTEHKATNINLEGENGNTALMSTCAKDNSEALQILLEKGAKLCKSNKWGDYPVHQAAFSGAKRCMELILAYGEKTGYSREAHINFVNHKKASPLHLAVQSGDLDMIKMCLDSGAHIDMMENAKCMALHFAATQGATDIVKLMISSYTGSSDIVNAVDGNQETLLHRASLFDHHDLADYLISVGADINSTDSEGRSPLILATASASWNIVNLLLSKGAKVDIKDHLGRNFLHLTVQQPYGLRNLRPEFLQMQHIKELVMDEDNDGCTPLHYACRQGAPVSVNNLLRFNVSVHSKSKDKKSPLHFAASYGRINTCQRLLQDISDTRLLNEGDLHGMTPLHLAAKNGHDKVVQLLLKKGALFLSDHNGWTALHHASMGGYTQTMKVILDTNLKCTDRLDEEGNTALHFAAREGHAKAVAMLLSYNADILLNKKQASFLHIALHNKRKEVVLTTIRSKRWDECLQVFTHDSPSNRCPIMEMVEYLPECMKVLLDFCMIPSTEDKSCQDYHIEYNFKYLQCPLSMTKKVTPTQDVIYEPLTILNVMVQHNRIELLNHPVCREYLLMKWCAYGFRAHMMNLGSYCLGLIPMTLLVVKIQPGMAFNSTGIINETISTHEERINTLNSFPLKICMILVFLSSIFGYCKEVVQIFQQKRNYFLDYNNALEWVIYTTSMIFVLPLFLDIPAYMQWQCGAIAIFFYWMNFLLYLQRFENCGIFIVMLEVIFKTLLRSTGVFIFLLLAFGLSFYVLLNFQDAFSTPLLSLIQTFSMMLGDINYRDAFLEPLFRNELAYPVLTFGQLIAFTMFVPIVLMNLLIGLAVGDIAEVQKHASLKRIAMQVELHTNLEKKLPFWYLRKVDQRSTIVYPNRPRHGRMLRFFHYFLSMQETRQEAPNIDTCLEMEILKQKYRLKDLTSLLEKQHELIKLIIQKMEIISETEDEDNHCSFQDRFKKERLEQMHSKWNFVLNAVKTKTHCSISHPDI
T3 sequence (Q8NER1 whole entry): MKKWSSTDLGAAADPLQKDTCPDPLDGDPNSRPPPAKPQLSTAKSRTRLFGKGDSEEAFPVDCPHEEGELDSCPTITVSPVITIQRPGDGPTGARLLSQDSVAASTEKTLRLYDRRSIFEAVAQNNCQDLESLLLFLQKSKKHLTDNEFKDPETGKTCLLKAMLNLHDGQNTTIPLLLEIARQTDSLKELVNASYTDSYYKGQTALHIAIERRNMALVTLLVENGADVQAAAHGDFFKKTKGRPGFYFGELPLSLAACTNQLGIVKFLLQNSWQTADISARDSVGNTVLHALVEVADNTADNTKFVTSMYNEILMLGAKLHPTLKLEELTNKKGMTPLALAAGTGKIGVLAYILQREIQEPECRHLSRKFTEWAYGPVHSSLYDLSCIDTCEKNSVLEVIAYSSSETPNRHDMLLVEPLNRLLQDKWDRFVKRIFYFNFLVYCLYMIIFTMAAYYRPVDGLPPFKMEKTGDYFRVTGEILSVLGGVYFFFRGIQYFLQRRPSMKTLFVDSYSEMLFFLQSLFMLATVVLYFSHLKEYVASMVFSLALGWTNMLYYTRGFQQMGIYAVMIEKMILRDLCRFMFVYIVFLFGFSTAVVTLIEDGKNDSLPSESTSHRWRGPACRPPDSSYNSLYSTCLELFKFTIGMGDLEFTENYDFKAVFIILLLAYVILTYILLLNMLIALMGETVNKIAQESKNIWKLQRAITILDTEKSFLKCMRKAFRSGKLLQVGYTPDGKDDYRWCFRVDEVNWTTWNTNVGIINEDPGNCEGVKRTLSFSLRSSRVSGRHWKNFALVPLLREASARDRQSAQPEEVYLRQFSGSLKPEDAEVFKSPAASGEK

For the molecule `CC(=O)N[C@H](C)[C@H](C/C=C\C/C=C\C/C=C\C/C=C\C/C=C\C/C=C\CCCCCC[C@H](OC(C)=O)[C@@H](C)NC(C)=O)OC(C)=O` [Compound 2], half-maximal inhibition against rat TRPM8 channel (IC50) required 44.6 ± 10.1 µM.
The molecule `CC(=O)N[C@H](C)[C@H](C/C=C\CC(/C=C/C=C\C/C=C\C/C=C\C/C=C\CCCCCC[C@H](OC(C)=O)[C@@H](C)NC(C)=O)OC(C)=O)OC(C)=O` (some centres unmarked) [Compound 4] showed an IC50 on rat TRPM8 channel of 65.7 ± 8.6 µM.
`C[C@@H](N)[C@@H](O)CCCCCCCCCCCCCCCCCCCCCCCC[C@H](O)[C@@H](C)N` [Compound 5]: at rat TRPA1 channel [1], the IC50 is 6.5 ± 0.4 µM. Besides, at rat TRPA1 channel [2], the “Reduction of efficacy at TRPA1 versus parent compound 1” value turned out to be 30%, the “Efficacy TRPA1 (% AITC 100 μM)” value came to 69.2 ± 0.1 % AITC 100 μM and the concentration for a half-maximal effect (EC50) came to 2.6 ± 0.1 µM. Also, it took 6.5 ± 0.3 µM to reach half-maximal inhibition at rat TRPM8 channel (IC50).
In the case of `CC(=O)N[C@H](C)[C@H](CCCCCCCCCCCCCCCCCCCCCCCC[C@H](OC(C)=O)[C@@H](C)NC(C)=O)OC(C)=O` [Compound 6], at rat TRPA1 channel [1], the IC50 was determined as 12.7 ± 0.8 µM. At rat TRPA1 channel [2], the “Efficacy TRPA1 (% AITC 100 μM)” value is 100.0 ± 9.7 % AITC 100 μM and the EC50 stood at 9.7 ± 3.3 µM. For the same molecule, the IC50 against rat TRPM8 channel was 29 ± 0.6 µM.
For the molecule `C[C@@H](N)[C@@H](O)C/C=C\C/C=C\C/C=C\C/C=C\C/C=C\C/C=C\CCCCCC[C@H](O)[C@@H](C)N` [Leucettamol A (1), leucettamol A], the values for the IC50 on rat TRPA1 channel [1] and against rat TRPM8 channel were 4.7 ± 0.2 µM and 6.5 ± 0.3 µM, respectively. The “Efficacy TRPA1 (% AITC 100 μM)” value on rat TRPA1 channel [2] was 101.9 ± 12.4 % AITC 100 μM. Further, the EC50 at rat TRPA1 channel [2] came out at 3.7 ± 1.7 µM.
Take `C[C@@H](N)[C@@H](O)C/C=C\CC(O)/C=C/C=C\C/C=C\C/C=C\C/C=C\CCCCCC[C@H](O)[C@@H](C)N` (some centres unmarked) [Leucettamol B (3), leucettamol B]: the IC50 on rat TRPA1 channel [1] came to 4.7 ± 0.9 µM; against rat TRPM8 channel, 6.4 ± 1 µM. In addition, at rat TRPA1 channel [2], the “Efficacy TRPA1 (% AITC 100 μM)” value was 103.3 ± 10.6 % AITC 100 μM. In addition, the EC50 on rat TRPA1 channel [2] stood at 5.9 ± 1.9 µM.
As to `COc1cc(CNC(=O)CCCC/C=C/C(C)C)ccc1O` [capsaicin], the “Efficacy TRPV1 (% of 4 μM ionomycin)” value in assay [3] is given as 78.6 ± 2.4 % of 4 μM ionomycin.
